{"source": "patent US4628090A", "about": "“Fluorine-containing antifolates incapable of polyglutanayte formation related compounds” (Rensselaer Polytechnic Institute, priority 1985, dated 1986)", "key": {"[1]": {"system": "DHFR", "details": "Rosowsky et al; cited from earlier work"}, "[2]": {"system": "FPGS (folylpolyglutamate synthetase)", "details": "Rosowsky et al; cited from earlier work"}, "[3]": {"system": "FPGS (folylpolyglutamate synthetase)", "details": "alternate substrate; McGuire and Coward, J. Biol. Chem. 260, 6747 (1985); cited from earlier work"}, "[4]": {"system": "FPGS (folylpolyglutamate synthetase)", "assay": "FPGS inhibition / chain termination by 4-fluoroglutamic acid", "assay_type": "biochemical", "excerpt": "The present invention for the first time presents a fluorinated compound, e.g. D,L-threo-4-fluoroglutamic acid which inhibits FPGS. It is proposed that by replacing the glutamate moiety of MTX with 4-fluoroglutamate, as in the present invention, the new MTX analog becomes capable of inhibiting DHFR and incapable of acting as a substrate for FPGS."}, "[5]": {"system": "biosynthesis of thymidyate", "assay": "Thymidylate biosynthesis (DNA synthesis) in pulse administration experiments", "assay_type": "cell-based"}, "[6]": {"system": "rat liver FPGS", "assay": "FPGS substrate activity, in vitro, rat liver FPGS", "assay_type": "biochemical"}, "[7]": {"system": "hepatic cells", "assay_type": "cell-based"}, "[8]": {"system": "folylpolyglutamate synthetase", "assay": "Polyglutamylation by FPGS: incubation with FPGS, ATP and glutamic acid (Tables 2 and 3)", "assay_type": "biochemical", "details": "Table 2 footnotes, ATP, glutamic acid"}, "[9]": {"system": "dihydrofolate reductase (DHFR)", "assay": "DHFR inhibition", "assay_type": "biochemical", "details": "in vitro, relative to MTX", "excerpt": "Hopefully, the potential for this new compound as a treatment for leukemia will be exploited further."}, "[10]": {"system": "cultured hepatic cells", "assay": "Toxicity in long term pulse administration experiments, cultured hepatic cells", "assay_type": "cell-based", "excerpt": "The major difference is that the cells given MTX contain large amounts (60%-90%) of MTX polyglutamate derivatives which efflux only very slowly, and thus are trapped in the cell. In contrast, cells given MFTX contain less than 5% of the analgous FMTX polyglutamates."}, "[11]": {"system": "leukemia", "details": "Farber et al, 1948; cited from earlier work"}}, "note": "“Also recorded” adds a separate entry of the source. Like-named read-outs stand apart in the source and are kept apart here."}
{"smiles": "CN(Cc1cnc2nc(N)nc(N)c2n1)c1ccc(C(=O)NC(CCS(=O)(=O)O)C(=O)O)cc1", "note": "(racemic)", "values": [{"measurement": "affinity for DHFR", "setting": "[1]", "value": "tightly bind DHFR"}, {"measurement": "inhibition of FPGS", "setting": "[2]", "value": "appears to weakly inhibit FPGS"}]}
{"smiles": "NC(CC(F)C(=O)O)C(=O)O", "note": "[D,L-threo-4-fluoroglutamic acid]", "values": [{"measurement": "chain termination of the FPGS reaction", "setting": "[3]", "value": "chain termination of the FPGS reaction"}, {"measurement": "inhibition of FPGS", "setting": "[4]", "value": "inhibits FPGS"}]}
{"smiles": "CN(Cc1cnc2nc(N)nc(N)c2n1)c1ccc(C(=O)NC(CC(F)C(=O)O)C(=O)O)cc1", "note": "(stereo not drawn) [FMTX, 4-amino-10-methyl-pteroyl-4-fluoroglutamic acid]", "values": [{"measurement": "biosynthesis of thymidyate, and therefore DNA synthesis", "setting": "[5]", "value": "only very weakly affected"}, {"measurement": "substrate for FPGS", "setting": "[6]", "value": "not a substrate"}, {"measurement": "efflux (transport out) from hepatic cells, rate", "setting": "[7]", "value": "essentially identical to unmetabolized MTX"}, {"measurement": "polyglutamate derivatives contained in cells", "setting": "[7]", "value": "less than 5%"}, {"measurement": "uptake by hepatic cells (rate and extent)", "setting": "[7]", "value": "nearly identical in terms of rate and extent as unmetabolized MTX"}, {"measurement": "polyglutamylation", "setting": "[8]", "value": "resists"}, {"measurement": "inhibitory activity against DHFR", "setting": "[9]", "value": "retain the potent inhibitory activity of MTX against DHFR; also recorded: comparable to MTX"}, {"measurement": "toxicity levels", "setting": "[10]; long term pulse administration, cultured hepatic cells, relative to MTX", "value": "several thousand times lower than MTX"}, {"measurement": "toxicity to cells", "setting": "[10]; preliminary biochemistry, relative to MTX", "value": "without being nearly as toxic to cells"}, {"measurement": "cytotoxicity", "setting": "[10]; pulse conditions", "value": "marked decrease in cytotoxicity"}]}
{"smiles": "Nc1nc2ncc(CNc3ccc(C(=O)N[C@@H](CCC(=O)O)C(=O)O)cc3)nc2c(=O)[nH]1", "note": "[Folic Acid]", "values": [{"measurement": "polyglutamylation", "setting": "[8]", "value": "undergoes polyglutamylation"}]}
{"smiles": "CN(Cc1cnc2nc(N)nc(N)c2n1)c1ccc(C(=O)N[C@@H](CCC(=O)O)C(=O)O)cc1", "note": "[Methotrexate]", "values": [{"measurement": "remission in leukemia", "setting": "[11]", "value": "temporary remission in leukemia"}, {"measurement": "polyglutamate derivatives contained in cells", "setting": "[7]", "value": "60-90%"}, {"measurement": "polyglutamylation", "setting": "[8]", "value": "undergoes"}]}
